Experimental data: US20240285612A1, “COMPOSITIONS COMPRISING AN AGONIST OF 5-HYDROXYTRYPTAMINE (5-HT) RECEPTOR SUBTYPE 3” (LDN Pharma Limited, priority 2021, published 2024)

Key:
[1] = tested on: 5-HT receptor 3A (HTR3A), transcript variant 1 mRNA; assay: Microarray gene expression of HTR3A transcript variant 1 mRNA in CD3+ lymphocytes treated 4 h; assay type: cell-based, human; settings: probe ILMN_1681492, HTR3A transcript variant 1, low dose naltrexone 10 nM
Protocol: (§1) CD3+ lymphocytes were isolated from the blood of haematologically normal volunteers. Cells placed into […] flasks at a concentration of 1×10^6/ml, and left to equilibrate in an incubator with a humidified atmosphere and 5% CO2 in air at 37° C. […] RNA extraction was performed using Trizol according to standard procedures, before being processed for microarray analysis according to the standard methodologies. Briefly, equal amounts of biotinylated cRNA was hybridised to the Illumina human HT12-v3 arrays for 18 h and subsequently processed according to manufacturer's instructions before scanning on an Illumina BeadArray Reader. The image data were processed using default values in GenomeStudio v2009.1 with imputation of missing data, before loading onto GeneSpring v9.0 for data normalisation and filtering. Data analyses were performed using Excel software, and the ratio of gene expression signals in treated vs. untreated calculated.

[2] = tested on: 5-HT receptor 3A (HTR3A), transcript variant 2 mRNA; assay: Microarray gene expression of HTR3A transcript variant 2 mRNA in CD3+ lymphocytes treated 4 h; assay type: cell-based, human
Protocol: as §1

For `O=C1CC[C@@]2(O)[C@H]3Cc4ccc(O)c5c4[C@@]2(CCN3CC2CC2)[C@H]1O5` [NTX, morphinan-6-one, 17-(cyclopropylmethyl)-4,5-epoxy-3,14-dihydroxy-(5a)], the “gene expression signal LDN” value [1] was 94.00, the “levels of mRNA for one or more of 5-HT3 receptor proteins” value ([2]; both high dose (10 uM) and low dose (10 nM) naltrexone, result in words) was “selectively increase the levels of mRNA” and the “gene expression signal LDN” value ([2]; probe ILMN_2371079, HTR3A transcript variant 2, low dose naltrexone 10 nM, 4 h, CD3+ lymphocytes) was 124.70. For the same molecule, the “gene expression signal NTX” value ([2]; probe ILMN_2371079, HTR3A transcript variant 2, naltrexone 10 uM, 4 h, CD3+ lymphocytes) was 151.75.
